Assay results: ChEMBL document CHEMBL1201862, “PubChem BioAssay data set” (2004)
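Following 48 hours of exposure in 96-well plates, responses at five concentrations were used to interpolate endpoints linearly. GI50 = concentration required for 50% inhibition of growth.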 Active and inactive are the calls of the source. Rule as the data show it: active = GI50 up to about 1.1 µM and inactive = higher.

Legend:
Assay in all cases: NCI-60 cell line screen, 48 h
OVCAR-4 = test system: OVCAR-4
OVCAR-3 = test system: OVCAR-3
CAKI-1 = test system: CAKI-1
HCT-15 = test system: HCT-15
NCI/ADR-RES = test system: NCI/ADR-RES
RXF 393 = test system: RXF 393
A549 = test system: A549
CCRF-CEM = test system: CCRF-CEM
SK-MEL-5 = test system: SK-MEL-5
SR = test system: SR
786-0 = test system: 786-0
U-251 = test system: U-251
SW-620 = test system: SW-620
HOP-62 = test system: HOP-62
T47D = test system: T47D
NCI-H226 = test system: NCI-H226
LOX IMVI = test system: LOX IMVI
NCI-H522 = test system: NCI-H522
OVCAR-5 = test system: OVCAR-5
SNB-19 = test system: SNB-19

Structure (SMILES)	GI50 (OVCAR-4)	GI50 (OVCAR-3)	GI50 (CAKI-1)	GI50 (HCT-15) [µM]	GI50 (NCI/ADR-RES)	GI50 (RXF 393)	GI50 (A549)	GI50 (CCRF-CEM)	GI50 (SK-MEL-5)	GI50 (SR)	GI50 (786-0)	GI50 (U-251)	GI50 (SW-620)	GI50 (HOP-62)	GI50 (T47D)	GI50 (NCI-H226)	GI50 (LOX IMVI)	GI50 (NCI-H522)	GI50 (OVCAR-5)	GI50 (SNB-19)
COc1ccc(-c2cc(-c3ccccc3)nc(/N=C\c3ccccc3)n2)c(O)c1	> 41.9 µM (inactive)	> 52.2 µM (inactive)	3.02 µM (inactive)	5.37	> 86.5 µM (inactive)	> 100 µM (inactive)	26.4 µM (inactive)	4.06 µM (inactive)	7.05 µM (inactive)	3.68 µM (inactive)	> 100 µM (inactive)	10.3 µM (inactive)	8 µM (inactive)	> 57.7 µM (inactive)	5.62 µM (inactive)	> 100 µM (inactive)	8.05 µM (inactive)	3.33 µM (inactive)	> 100 µM (inactive)	> 36.5 µM (inactive)
NC(=O)NC1NC(=O)NC1=O (configuration not stated) [ALLANTOIN]	> 100 µM (inactive)	> 100 µM (inactive)	> 100 µM (inactive)	> 100	> 100 µM (inactive)	> 100 µM (inactive)	> 100 µM (inactive)	> 100 µM (inactive)	> 100 µM (inactive)	> 100 µM (inactive)	> 100 µM (inactive)	> 100 µM (inactive)	> 100 µM (inactive)	> 100 µM (inactive)	> 100 µM (inactive)	> 100 µM (inactive)	> 100 µM (inactive)	> 100 µM (inactive)	> 100 µM (inactive)	> 100 µM (inactive)
CCn1c(-c2c(Cl)cc(O)cc2Cl)cc2c(Cl)cc(O)cc21	4.85 µM (inactive)	6.08 µM (inactive)	6.14 µM (inactive)	3.48	5.13 µM (inactive)	2.33 µM (inactive)	4.42 µM (inactive)	6.04 µM (inactive)	3.21 µM (inactive)	5.45 µM (inactive)	4.66 µM (inactive)	4.03 µM (inactive)	5.69 µM (inactive)	6.25 µM (inactive)	7.62 µM (inactive)	26.4 µM (inactive)	6.38 µM (inactive)	1.72 µM (inactive)	8.97 µM (inactive)	8.47 µM (inactive)
CCc1nc(N)nc(N)c1-c1ccc(NC)c([N+](=O)[O-])c1	15.5 µM (inactive)	10.7 µM (inactive)	0.767 µM (active)	0.398	1.2 µM (inactive)	16 µM (inactive)	0.192 µM (active)	0.531 µM (active)	0.63 µM (active)	0.327 µM (active)	0.558 µM (active)	0.631 µM (active)	0.481 µM (active)	1.79 µM (inactive)	21.4 µM (inactive)	28.6 µM (inactive)	0.449 µM (active)	1.88 µM (inactive)	17.1 µM (inactive)	9.08 µM (inactive)
C[C@H](NC1=CC(=O)C(N[C@@H](C)[C@H](O)c2ccccc2)=CC1=O)[C@H](O)c1ccccc1	> 100 µM (inactive)	> 100 µM (inactive)	> 100 µM (inactive)	68.9	92.7 µM (inactive)	> 100 µM (inactive)	95.3 µM (inactive)	57.8 µM (inactive)	49.5 µM (inactive)	14.6 µM (inactive)	> 100 µM (inactive)	> 100 µM (inactive)	> 100 µM (inactive)	> 100 µM (inactive)	53.1 µM (inactive)	62.1 µM (inactive)	> 100 µM (inactive)	61.8 µM (inactive)	> 100 µM (inactive)	> 100 µM (inactive)
CS(=O)(=O)N1CC(CCl)c2ccc([N+](=O)[O-])cc21 (configuration not stated)	> 100 µM (inactive)	> 100 µM (inactive)	> 100 µM (inactive)	> 100	> 100 µM (inactive)	> 100 µM (inactive)	> 100 µM (inactive)	> 100 µM (inactive)	> 100 µM (inactive)	> 100 µM (inactive)	> 100 µM (inactive)	58.6 µM (inactive)	> 100 µM (inactive)	> 100 µM (inactive)	> 100 µM (inactive)	> 100 µM (inactive)	> 100 µM (inactive)	> 100 µM (inactive)	> 100 µM (inactive)	> 100 µM (inactive)
Cc1ccc2nc(/C=N/c3ccccc3Cl)cc(C)c2c1	34 µM (inactive)	17.5 µM (inactive)	30.8 µM (inactive)	18.4	16.8 µM (inactive)	14.5 µM (inactive)	> 100 µM (inactive)	4.89 µM (inactive)	14.9 µM (inactive)	2.81 µM (inactive)	16.7 µM (inactive)	20.7 µM (inactive)	13.1 µM (inactive)	38.8 µM (inactive)	22.4 µM (inactive)	20.6 µM (inactive)	8.61 µM (inactive)	20 µM (inactive)	42.3 µM (inactive)	30.2 µM (inactive)
COc1ccc2c(c1)c1c3c(ccc4ncn2c43)N(CCN(C)C)CCN=1	0.309 µM (active)	0.538 µM (active)	1.71 µM (inactive)	0.303	0.438 µM (active)	1.12 µM (active)	0.359 µM (active)	0.127 µM (active)	0.91 µM (active)	0.0302 µM (active)	0.19 µM (active)	0.363 µM (active)	0.146 µM (active)	0.362 µM (active)	1.52 µM (inactive)	1.14 µM (inactive)	0.378 µM (active)	0.19 µM (active)	0.676 µM (active)	0.405 µM (active)
COc1cc2c(c(O)c1OC)C(O)C1CCC(=O)N1C2c1ccc2c(c1)OCO2 (configuration not stated)	> 100 µM (inactive)	> 100 µM (inactive)	> 100 µM (inactive)	> 100	> 100 µM (inactive)	> 100 µM (inactive)	> 100 µM (inactive)	> 100 µM (inactive)		> 100 µM (inactive)	> 100 µM (inactive)	> 100 µM (inactive)	> 100 µM (inactive)	> 100 µM (inactive)	> 100 µM (inactive)	> 100 µM (inactive)	> 100 µM (inactive)	> 100 µM (inactive)	> 100 µM (inactive)	> 100 µM (inactive)
COc1cc(OC)c(-n2[nH]c(=O)n(C)c2=O)c(OC)c1	> 100 µM (inactive)	> 100 µM (inactive)	> 100 µM (inactive)	> 100	> 100 µM (inactive)	> 100 µM (inactive)	> 100 µM (inactive)	> 100 µM (inactive)		> 100 µM (inactive)	> 100 µM (inactive)	> 100 µM (inactive)	> 100 µM (inactive)		> 100 µM (inactive)	> 100 µM (inactive)	> 100 µM (inactive)	49.7 µM (inactive)	> 100 µM (inactive)	> 100 µM (inactive)
Cc1ncc([N+](=O)[O-])n1CCNCCCCn1ccnc1[N+](=O)[O-]	> 100 µM (inactive)	> 100 µM (inactive)	> 100 µM (inactive)	> 100	> 100 µM (inactive)	> 100 µM (inactive)	> 100 µM (inactive)	> 100 µM (inactive)	> 100 µM (inactive)	> 100 µM (inactive)	> 100 µM (inactive)	> 100 µM (inactive)	> 100 µM (inactive)	> 100 µM (inactive)	> 100 µM (inactive)	> 100 µM (inactive)	> 100 µM (inactive)	> 100 µM (inactive)	> 100 µM (inactive)	
O=C(CCc1cccc(O)c1)NCCc1ccc(O)cc1	> 100 µM (inactive)	> 100 µM (inactive)	> 100 µM (inactive)	> 100	> 100 µM (inactive)	> 100 µM (inactive)	> 100 µM (inactive)	> 100 µM (inactive)	> 100 µM (inactive)	> 100 µM (inactive)	> 100 µM (inactive)	> 100 µM (inactive)		> 100 µM (inactive)	> 100 µM (inactive)	> 100 µM (inactive)	> 100 µM (inactive)	17.3 µM (inactive)	> 100 µM (inactive)	> 100 µM (inactive)
CN(C)C(=O)Nc1cc2c3c(c1)CCCN3CCC2	> 10 µM (inactive)	> 10 µM (inactive)	> 10 µM (inactive)	> 10	> 10 µM (inactive)	> 10 µM (inactive)	> 10 µM (inactive)	> 10 µM (inactive)	> 10 µM (inactive)	> 10 µM (inactive)	> 10 µM (inactive)	> 10 µM (inactive)	> 10 µM (inactive)	> 10 µM (inactive)	> 10 µM (inactive)	> 10 µM (inactive)	> 10 µM (inactive)	> 10 µM (inactive)		> 10 µM (inactive)
CNC(=O)NCCN1CC2CCC(CC2)C1	> 10 µM (inactive)	> 10 µM (inactive)	> 10 µM (inactive)	> 10	> 10 µM (inactive)	> 10 µM (inactive)	> 10 µM (inactive)	> 10 µM (inactive)	> 10 µM (inactive)	> 10 µM (inactive)	> 10 µM (inactive)	> 10 µM (inactive)	> 10 µM (inactive)	> 10 µM (inactive)	> 10 µM (inactive)	> 10 µM (inactive)	> 10 µM (inactive)	> 10 µM (inactive)		> 10 µM (inactive)
COc1ccc(/C=N/N2C(=O)c3c(N)c(C#N)c(-c4ccccc4)c(-c4ccccc4)c3C2=O)cc1	99.8 µM (inactive)	> 100 µM (inactive)	> 100 µM (inactive)	> 100	> 100 µM (inactive)	72.8 µM (inactive)	> 100 µM (inactive)	> 100 µM (inactive)	> 100 µM (inactive)	> 100 µM (inactive)	64.6 µM (inactive)	98.6 µM (inactive)	> 100 µM (inactive)		> 100 µM (inactive)	> 100 µM (inactive)	> 100 µM (inactive)	> 100 µM (inactive)	> 100 µM (inactive)	76.9 µM (inactive)
